Assay in all cases: Cellular cytotoxicity of compounds of Formula I, Example 3.1
Common to all, as to type: cell-based

Test [1] has as its system Human T-cell leukemia cell line Jurkat. The note with it: Homo sapiens, Jurkat, read-out: EC50 (nM) Jurkat. Here is the method: (§1) Compounds were tested on one or more of Human T-cell leukemia cell line Jurkat (ATCC: TIB-152); Human breast cancer cell lines HCC1954 (ATCC: CRL-2338) and JIMT-1 (DSMZ: ACC 589); Human Pancreatic cell line BxPC-3 (ATCC: CRL.1687), Human ovarian adenocarcinoma cell line SK-OV-3 (ATCC: HTB-77) and Human gastric carcinoma cell line NCI-N87 (ATCC: CRL. 5822); to assess their cytotoxicity.
(§2) Briefly, cells were obtained from commercial sources and cultured as described in the product sheet provided. Cells were removed from their culture vessels and the resulting cell suspension was counted using a ViCell (Beckman Coulter), then seeded at 25,000 cells/mL (2,500 cells/well) in Costar 3904 black walled, flat bottomed 96-well plates (cells were seeded in the inner 60 wells of 96-well TC plates, and outer edge wells filled with water). Adherent cell lines were incubated for one night at 37° C./5% CO2 atmosphere to allow the cells to attach to the microtiter plate surface, while suspension (Jurkat) cells were plated immediately before use. Cytotoxins were dissolved and serially diluted in dimethyl sulfoxide and then the solutions were added to complete growth medium at five-times the desired maximum final concentration. The cytotoxins were then titrated in growth medium, normally 1:3, over eight steps. A control with no test article present (growth medium alone) was included on each microtiter plate in sextuplicate. The prepared toxin titrations were added (25 μL/well) in triplicate to each cell line assayed. The cells and titrations were incubated at 37° C./5% CO2 for three nights (Jurkat) and five nights (all other cell lines). After the incubation, cell viability was measured using CellTiter-Glo® by adding 30 μL of prepared CellTiter-Glo® reagent to each assay well. The mixtures were incubated for at least twenty minutes in the dark prior to measuring emitted luminescence using a microplate luminometer (500 ms integration time). The collected relative luminescence units (RLU) were converted to % cytotoxicity using the growth medium alone control mentioned above (% Cytotoxicity=1-[well RLU/average medium alone control RLU]×100%).

In test [2] the test system is Human gastric carcinoma cell line NCI-N87. The note with it: five nights, CellTiter-Glo. Here is the method: as §1, §2
Background: ATP-based viability assays read luminescence as a measure of living cells.

The subject of test [3] is Human Pancreatic cell line BxPC-3. The settings on record: five nights, CellTiter-Glo. The method, then:
as §1, §2

Read-outs that look alike come from different tables or passages of the source.

What is called EC50 is the concentration that produces a half-maximal response. Regarding `CC[C@H](C)[C@@H]([C@@H](CC(=O)N1CCC[C@H]1[C@H](OC)[C@@H](C)C(=O)NS(=O)(=O)c1ccc(NC(=O)C(F)(F)F)cc1)OC)N(C)C(=O)[C@@H](NC(=O)[C@H]1CCCCN1C(C)C)C(C)C` [Compound 15, (R)-1-Isopropyl-N-((S)-1-(((3R,4S,5S)-3-methoxy-1-((S)-2-((1R,2R)-1-methoxy-2-methyl-3-oxo-3-((4-(2,2,2-trifluoroacetamido)phenyl)sulfonamido)propyl)pyrrolidin-1-yl)-5-methyl-1-oxoheptan-4-yl)(methyl)amino)-3-methyl-1-oxobutan-2-yl)piperidine-2-carboxamide], the EC50 in test [1] (three nights, CellTiter-Glo) came out at 10.1 nM; in test [2], 11.7 nM; in test [3], 14.5 nM.

As to `CC[C@H](C)[C@@H]([C@@H](CC(=O)N1CCC[C@H]1[C@H](OC)[C@@H](C)C(=O)NS(=O)(=O)c1ccc(N)cc1)OC)N(C)C(=O)[C@@H](NC(=O)[C@H]1CCCCN1C(C)C)C(C)C` [Compound 16, (R)-N-((S)-1-(((3R,4S,5S)-1-((S)-2-((1R,2R)-3-((4-Aminophenyl)sulfonamido)-1-methoxy-2-methyl-3-oxopropyl)pyrrolidin-1-yl)-3-methoxy-5-methyl-1-oxoheptan-4-yl)(methyl)amino)-3-methyl-1-oxobutan-2-yl)-1-isopropylpiperidine-2-carboxamide], the EC50 in test [1] (three nights, CellTiter-Glo) was 11.5 nM; in test [2], 14.4 nM; in test [3] it was 17 nM.

As for `CC[C@H](C)[C@@H]([C@@H](CC(=O)N1CCC[C@H]1[C@H](OC)[C@@H](C)C(=O)NS(=O)(=O)c1ccc(N)cc1)OC)N(C)C(=O)[C@@H](NC(=O)C(C)(C)N)C(C)C` [Compound 17, (S)-2-(2-Amino-2-methylpropanamido)-N-((3R,4S,5S)-1-((S)-2-((1R,2R)-3-((4-aminophenyl)sulfonamido)-1-methoxy-2-methyl-3-oxopropyl)pyrrolidin-1-yl)-3-methoxy-5-methyl-1-oxoheptan-4-yl)-N,3-dimethylbutanamide], the EC50 was 30.5 nM in test [1] (three nights, CellTiter-Glo); over 100 nM in test [2]; over 100 nM in test [3].

On to `CC[C@H](C)[C@@H]([C@@H](CC(=O)N1CCC[C@H]1[C@H](OC)[C@@H](C)C(=O)NS(=O)(=O)c1ccc(N)cc1)OC)N(C)C(=O)[C@@H](NC(=O)[C@@H](NC)C(C)(C)c1ccccc1)C(C)C` [Compound 19, (S)-N-((3R,4S,5S)-1-((S)-2-((1R,2R)-3-((4-Aminophenyl)sulfonamido)-1-methoxy-2-methyl-3-oxopropyl)pyrrolidin-1-yl)-3-methoxy-5-methyl-1-oxoheptan-4-yl)-N,3-dimethyl-2-((S)-3-methyl-2-(methylamino)-3-phenylbutanamido)butanamide], for which the EC50 amounted to 2.2 nM in test [1] (three nights, CellTiter-Glo); 12.8 nM in test [2]; 10.2 nM in test [3].

Turning to `CC[C@H](C)[C@@H]([C@@H](CC(=O)N1CCC[C@H]1[C@H](OC)[C@@H](C)C(=O)NS(=O)(=O)c1ccc(N)cc1)OC)N(C)C(=O)[C@@H](NC(=O)[C@@H](NC)C(C)C)C(C)C` [Compound 20, (S)-N-((3R,4S,5S)-1-((S)-2-((1R,2R)-3-((4-Aminophenyl)sulfonamido)-1-methoxy-2-methyl-3-oxopropyl)pyrrolidin-1-yl)-3-methoxy-5-methyl-1-oxoheptan-4-yl)-N,3-dimethyl-2-((S)-3-methyl-2-(methylamino)butanamido)butanamide], the EC50 is over 100 nM in test [1] (three nights, CellTiter-Glo); over 300 nM in test [2]; over 300 nM in test [3].

For `CC[C@H](C)[C@@H]([C@@H](CC(=O)N1CCC[C@H]1[C@H](OC)[C@@H](C)C(=O)NS(=O)(=O)c1ccc(CNC(=O)C(F)(F)F)cc1)OC)N(C)C(=O)[C@@H](NC(=O)[C@H](C(C)C)N(C)C)C(C)C` [Compound 21, (S)-2-((S)-2-(Dimethylamino)-3-methylbutanamido)-N-((3R,4S,5S)-3-methoxy-1-((S)-2-((1R,2R)-1-methoxy-2-methyl-3-oxo-3-((4-((2,2,2-trifluoroacetamido)methyl)phenyl)sulfonamido)propyl)pyrrolidin-1-yl)-5-methyl-1-oxoheptan-4-yl)-N,3-dimethylbutanamide], the 50% effective concentration (EC50) was about 100 nM in test [1] (three nights, CellTiter-Glo); over 300 nM in test [2]; over 100 nM in test [3].

For `CC[C@H](C)[C@@H]([C@@H](CC(=O)N1CCC[C@H]1[C@H](OC)[C@@H](C)C(=O)N[C@@H](Cc1ccccc1)C(=O)NS(=O)(=O)c1ccc(CNC(=O)C(F)(F)F)cc1)OC)N(C)C(=O)[C@@H](NC(=O)[C@H](C(C)C)N(C)C)C(C)C` [Compound 23, (S)-2-((S)-2-(Dimethylamino)-3-methylbutanamido)-N-((3R,4S,5S)-3-methoxy-1-((S)-2-((1R,2R)-1-methoxy-2-methyl-3-oxo-3-(((S)-1-oxo-3-phenyl-1-((4-((2,2,2-trifluoroacetamido)methyl)phenyl)sulfonamido)propan-2-yl)amino)propyl)pyrrolidin-1-yl)-5-methyl-1-oxoheptan-4-yl)-N,3-dimethylbutanamide], the values for the EC50 in test [1], in test [2] and in test [3] were 11.8 nM, 11.3 nM and 17.2 nM, respectively.

Consider `CC[C@H](C)[C@@H]([C@@H](CC(=O)N1CCC[C@H]1[C@H](OC)[C@@H](C)C(=O)N[C@@H](Cc1ccccc1)C(=O)NS(=O)(=O)c1ccc(CN)cc1)OC)N(C)C(=O)[C@@H](NC(=O)[C@H](C(C)C)N(C)C)C(C)C` [Compound 24, (S)-N-((3R,4S,5S)-1-((S)-2-((1R,2R)-3-(((S)-1-((4-(Aminomethyl)phenyl)sulfonamido)-1-oxo-3-phenylpropan-2-yl)amino)-1-methoxy-2-methyl-3-oxopropyl)pyrrolidin-1-yl)-3-methoxy-5-methyl-1-oxoheptan-4-yl)-2-((S)-2-(dimethylamino)-3-methylbutanamido)-N,3-dimethylbutanamide], for which the EC50 is about 100 nM in test [1] (three nights, CellTiter-Glo); over 100 nM in test [2]; over 100 nM in test [3].

`CC[C@H](C)[C@@H]([C@@H](CC(=O)N1CCC[C@H]1[C@H](OC)[C@@H](C)C(=O)NS(=O)(=O)c1ccc(C2(NC(=O)C(F)(F)F)CC2)cc1)OC)N(C)C(=O)[C@@H](NC(=O)[C@H](C(C)C)N(C)C)C(C)C` [Compound 29, (S)-2-((S)-2-(Dimethylamino)-3-methylbutanamido)-N-((3R,4S,5S)-3-methoxy-1-((S)-2-((1R,2R)-1-methoxy-2-methyl-3-oxo-3-(4-(1-(2,2,2-trifluoroacetamido)cyclopropyl)phenylsulfonamido)propyl)pyrrolidin-1-yl)-5-methyl-1-oxoheptan-4-yl)-N,3-dimethylbutanamide]: the EC50 in test [1] (three nights, CellTiter-Glo) was determined as 22.1 nM.

Consider `CC[C@H](C)[C@@H]([C@@H](CC(=O)N1CCC[C@H]1[C@H](OC)[C@@H](C)C(=O)NS(=O)(=O)c1ccc(C2(N)CC2)cc1)OC)N(C)C(=O)[C@@H](NC(=O)[C@H](C(C)C)N(C)C)C(C)C` [Compound 30, (S)-N-((3R,4S,5S)-1-((S)-2-((1R,2R)-3-(4-(1-Aminocyclopropyl)phenylsulfonamido)-1-methoxy-2-methyl-3-oxopropyl)pyrrolidin-1-yl)-3-methoxy-5-methyl-1-oxoheptan-4-yl)-2-((S)-2-(dimethylamino)-3-methylbutanamido)-N,3-dimethylbutanamide], for which the EC50 in test [1] (three nights, CellTiter-Glo) is over 100 nM.

Regarding `CC[C@H](C)[C@@H]([C@@H](CC(=O)N1CCC[C@H]1[C@H](OC)[C@@H](C)C(=O)N[C@@H](Cc1ccccc1)C(=O)NS(=O)(=O)c1ccc(C2(NC(=O)C(F)(F)F)CC2)cc1)OC)N(C)C(=O)[C@@H](NC(=O)[C@H](C(C)C)N(C)C)C(C)C` [Compound 31, (S)-2-((S)-2-(Dimethylamino)-3-methylbutanamido)-N-((3R,4S,5S)-3-methoxy-1-((S)-2-((1R,2R)-1-methoxy-2-methyl-3-oxo-3-((S)-1-oxo-3-phenyl-1-(4-(1-(2,2,2-trifluoroacetamido)cyclopropyl)phenylsulfonamido)propan-2-ylamino)propyl)pyrrolidin-1-yl)-5-methyl-1-oxoheptan-4-yl)-N,3-dimethylbutanamide], the EC50 in test [1] amounted to 31.1 nM.

In the case of `CC[C@H](C)[C@@H]([C@@H](CC(=O)N1CCC[C@H]1[C@H](OC)[C@@H](C)C(=O)N[C@@H](Cc1ccccc1)C(=O)NS(=O)(=O)c1ccc(C2(N)CC2)cc1)OC)N(C)C(=O)[C@@H](NC(=O)[C@H](C(C)C)N(C)C)C(C)C` [Compound 32, (S)-N-((3R,4S,5S)-1-((S)-2-((1R,2R)-3-((S)-1-(4-(1-Aminocyclopropyl)phenylsulfonamido)-1-oxo-3-phenylpropan-2-ylamino)-1-methoxy-2-methyl-3-oxopropyl)pyrrolidin-1-yl)-3-methoxy-5-methyl-1-oxoheptan-4-yl)-2-((S)-2-(dimethylamino)-3-methylbutanamido)-N,3-dimethylbutanamide], the concentration giving a half-maximal response (EC50) in test [1] (three nights, CellTiter-Glo) is over 100 nM.

Values taken from US10450378B2, “Cytotoxic and anti-mitotic compounds, and methods of using the same” (priority 2014, dated 2019).
